# Source: patent publication EP0251013A2, “Fluorine containing o-aminophenols” (BAYER AG, priority 1986, dated 1988)
# How the values were obtained:
# Format in all cases: in vivo
# [1] = system: Echinochloa; experiment: Post-emergence test, greenhouse; conditions: Echinochloa, 0,25 kg/ha, rated after three weeks vs untreated control
# Excerpt: (§1) Lösungsmittel: 5 Gewichtsteile Aceton Emulgator: 1 Gewichtsteil Alkylarylpolyglykolether
# (§2) Zur Herstellung einer zweckmäßigen Wirkstoffzubereitung vermischte man 1 Gewichtsteil Wirkstoff mit der angegebenen Menge Lösungsmittel, gab die angegebene Menge Emulgator zu und verdünnte das Konzentrat mit Wasser auf die gewünschte Konzentration.
# (§3) Mit der Wirkstoffzubereitung spritzte man Testpflanzen, welche eine Höhe von 5 - 15 cm hatten so, daß die jeweils gewünschten Wirkstoffmengen pro Flächeneinheit ausgebracht wurden. Die Konzentration der Spritzbrühe wurde so gewählt, daß in 2000 1 Wasser/ha die jeweils gewünschten Wirkstoffmengen ausgebracht wurden. Nach drei Wochen wurde der Schädigungsgrad der Pflanzen bonitiert in % Schädigung im Vergleich zur Entwicklung der unbehandelten Kontrolle.
# (§4) Es bedeuten: • 0 % = keine Wirkung (wie unbehandelte Kontrolle) • 100 % = totale Vernichtung
# [2] = system: Chenopodium; experiment: Post-emergence test, greenhouse; conditions: Chenopodium, 0,25 kg/ha, rated after three weeks vs untreated control
# Excerpt: as §1, §2, §3, §4
# [3] = system: Sinapis; experiment: Post-emergence test, greenhouse; conditions: Sinapis, 0,25 kg/ha, rated after three weeks vs untreated control
# Excerpt: as §1, §2, §3, §4
# [4] = system: Solanum; experiment: Post-emergence test, greenhouse; conditions: Solanum, 0,25 kg/ha, rated after three weeks vs untreated control
# Excerpt: as §1, §2, §3, §4
# [5] = system: Poa; experiment: Post-emergence test, greenhouse; conditions: Poa, 0,25 kg/ha, rated after three weeks vs untreated control
# Excerpt: as §1, §2, §3, §4
# [6] = system: Baumwolle; experiment: Post-emergence test, greenhouse; conditions: Baumwolle, 0,25 kg/ha, sprayed on plants 5 - 15 cm high, rated after three weeks vs untreated control (0 % = no effect, 100 % = total destruction)
# Excerpt: as §1, §2, §3, §4
# [7] = system: Mais; experiment: Post-emergence test, greenhouse; conditions: Mais, 0,25 kg/ha, rated after three weeks vs untreated control
# Excerpt: as §1, §2, §3, §4
# [8] = system: Portulak; experiment: Pre-emergence test, greenhouse; conditions: Portulak, 1,0 kg/ha, rated after three weeks vs untreated control
# Excerpt: as §1, §2
# (§5) Samen der Testpflanzen wurden in normalen Boden ausgesät und nach 24 Stunden mit der Wirkstoffzubereitung begossen. Dabei wurde die Wassermenge pro Flächeneinheit zweckmäßigerweise konstant gehalten. Die Wirkstoffkonzentration in der Zubereitung spielte keine Rolle, entscheidend war nur die Aufwandmenge des Wirkstoffs pro Flächeneinheit. Nach drei Wochen wurde der Schädigungsgrad der Pflanzen bonitiert in % Schädigung im Vergleich zur Entwicklung der unbehandelten Kontrolle. Es bedeuten: • 0 % = keine Wirkung (wie unbehandelte Kontrolle) • 100 % = totale Vernichtung
# [9] = system: Weizen; experiment: Pre-emergence test, greenhouse; conditions: Weizen, 1,0 kg/ha, rated after three weeks vs untreated control
# Excerpt: as §1, §2, §5
# [10] = system: Chenopodium; experiment: Pre-emergence test, greenhouse; conditions: Chenopodium, 1,0 kg/ha, rated after three weeks vs untreated control
# Excerpt: as §1, §2, §5
# [11] = system: Matricaria; experiment: Pre-emergence test, greenhouse; conditions: Matricaria, 1,0 kg/ha, rated after three weeks vs untreated control
# Excerpt: as §1, §2, §5
# [12] = system: Datura; experiment: Pre-emergence test, greenhouse; conditions: Datura, 1,0 kg/ha, rated after three weeks vs untreated control
# Excerpt: as §1, §2, §5
# [13] = system: Cynodon; experiment: Pre-emergence test, greenhouse; conditions: Cynodon, 1,0 kg/ha, rated after three weeks vs untreated control
# Excerpt: as §1, §2, §5
# [14] = system: Baumwolle; experiment: Pre-emergence test, greenhouse; conditions: Baumwolle, 1,0 kg/ha, rated after three weeks vs untreated control (0 % = no effect, 100 % = total destruction)
# Excerpt: as §1, §2, §5
# [15] = system: Stellaria; experiment: Pre-emergence test, greenhouse; conditions: Stellaria, 1,0 kg/ha, rated after three weeks vs untreated control
# Excerpt: as §1, §2, §5
structure (smiles),measurement,setting,value
"FC(Cl)(Cl)Sn1c(C(F)(F)F)nc2cc(C(F)(F)F)c(Cl)cc21 [Beispiel 13, 1-Dichlorfluormethylsulfenyl-2,5-bis(trifluormethyl)-6-chlorbenzimidazol]",Schädigungsgrad der Pflanzen in % Schädigung,[1],80%
same,Schädigungsgrad der Pflanzen in % Schädigung,[2],100%
same,Schädigungsgrad der Pflanzen in % Schädigung,[3],100%
same,Schädigungsgrad der Pflanzen in % Schädigung,[4],100%
same,Schädigungsgrad der Pflanzen in % Schädigung,[5],100%
same,Schädigungsgrad der Pflanzen in % Schädigung,[6],20%
same,Schädigungsgrad der Pflanzen in % Schädigung,[7],50%
same,Schädigungsgrad der Pflanzen in % Schädigung,[8],100%
same,Schädigungsgrad der Pflanzen in % Schädigung,[9],0%
same,Schädigungsgrad der Pflanzen in % Schädigung,[10],100%
same,Schädigungsgrad der Pflanzen in % Schädigung,[11],80%
same,Schädigungsgrad der Pflanzen in % Schädigung,[12],80%
same,Schädigungsgrad der Pflanzen in % Schädigung,[13],100%
same,Schädigungsgrad der Pflanzen in % Schädigung,[14],0%
same,Schädigungsgrad der Pflanzen in % Schädigung,[15],80%
